Data as given in PubChem BioAssay AID2305 (GlaxoSmithKline (GSK), 2010).
Values joined by “and” are separate entries in the source; they are usually repeats but may differ in a detail not shown here. Equal values may be shown once.

tested on: P. falciparum 3D7 growth, pLDH absorbance; test: P. falciparum 3D7 growth inhibition, dose response, strain 3D7 (AID 2305)

Point of comparison: `Cc1[nH]c(C)c(-c2ccc(-c3ccc(OC(F)(F)F)cc3)nc2)c(=O)c1Cl`, IC50 200 nM. Against it:
- C=CCN1C(=O)c2[nH]nc(-c3cc(C)c(C)cc3O)c2C1c1cccc(Br)c1 (stereo unspecified) — 5.8-fold higher, 1160 nM
- CC(C)NCc1ccc(-c2ccc(CN3CCCC(c4ccccc4)C3)cc2)c(C(=O)NC2Cc3ccccc3C2)c1 (stereo unspecified) — 5-fold higher, 990 nM
- CCOc1ccc(C(=O)N2CCOC(CCN3CCC(c4ccccc4)CC3)(c3ccc(Cl)c(Cl)c3)C2)cc1 (stereo unspecified) — 4.2-fold higher, 850 nM
- CN(C)Cc1cc(Nc2ccnc3cc(Cl)ccc23)ccc1O — 20-fold lower, 10 nM
- CCCc1cc(Cc2cnc(N)nc2N)cc(CCC)c1O — within 1.5-fold, 280 nM
- O=C(Nc1ccc(-c2cccc(-c3nc4ccccc4[nH]3)c2)cc1)Nc1ccc(F)c(F)c1F — within 1.5-fold, 180 nM
- Cc1ccc2nc(C)n(C3CCN(C(=O)Cc4ccc(F)c(F)c4)CC3)c2c1 — 2.4-fold higher, 470 nM
- COc1ccc2nccc([C@@H](O)CN3CCC(NCc4ccc5c(c4)NC(=O)CO5)CC3)c2c1 — 8.3-fold higher, 1660 nM
- CN1CCN(CCCN(Cc2csc(-c3ccc(CNCc4ccccc4)cc3)n2)C(=O)Nc2cccc(Cl)c2)CC1 — 4-fold higher, 790 nM
- COc1ccc2ncc(F)c(CCN3CCC(NCc4cc(C)c5c(c4)OCCO5)CC3)c2n1 — 2.5-fold higher, 490 nM
- NC(N)=Nc1ccc(NC(=O)Nc2ccc(N=C(N)N)cc2)cc1 — 1.9-fold higher, 390 nM
- Cc1nc2nc(N)nc(N)c2c(C)c1Cc1ccc([N+](=O)[O-])cc1 — 2.2-fold higher, 440 nM
- CC(C(=O)N1CCCC1)N1CCN(S(=O)(=O)c2ccc(C(C)(C)C)cc2)CC1 (stereo unspecified) — 3.2-fold higher, 640 nM
- FC(F)(F)c1ccc2nc(-c3cccc(-c4cccc(CN5CCN(c6ccncc6)CC5)c4)c3)[nH]c2c1 — within 1.5-fold, 160 nM
- O=C(Nc1cccc(CN2CCCN(Cc3ccc(O)cc3)CC2)c1)c1cccc(F)c1 — 4.5-fold higher, 900 nM
- Cn1cncc1-c1cc2c(Nc3ccc(OCc4ccccc4)cc3)ncnc2cn1 — within 1.5-fold, 270 nM
- O=C(/C=C/c1ccc(Cl)c(Cl)c1)N1CCC(CN2CCC(Cc3c[nH]c4ccccc34)CC2)CC1 — 3.4-fold higher, 670 nM
- NS(=O)(=O)c1cncc(-c2ccc3nccc(-c4cn[nH]c4)c3n2)c1 — 2.6-fold higher, 530 nM
- Cc1ccc([C@@H]2CC(=O)CC(c3ccccn3)[C@H]2[N+](=O)[O-])cc1 (stereo partly specified) — 4.3-fold higher, 860 nM
- CCS(=O)(=O)Nc1ccc2[nH]cc(C3CCN(CCC4CCN(C(=O)/C=C/c5ccc(Cl)c(Cl)c5)CC4)CC3)c2c1 — 2.6-fold higher, 530 nM
- Cc1c(-c2cccc(C(C)(C)NC3CCN(Cc4ccccc4)CC3)c2)cnc(N)c1C — 2.9-fold higher, 580 nM
- COc1cc(NC(=O)Nc2ccc([N+](=O)[O-])cc2OC)c(OC)cc1Cl — 7.3-fold higher, 1470 nM
- COc1ccc(-c2cc3ncn(CC(=O)N4CCN(c5cccc(OC)c5)CC4)c(=O)c3s2)cc1 — 5.3-fold higher, 1060 nM
- C=CCNC(=O)C(C)c1ccc2cc(OC)ccc2c1 (stereo unspecified) — 2.1-fold higher, 420 nM
- O=C(Nc1ccc(OC2CCN(Cc3ccccc3)C2)c(Cl)c1)c1cccs1 (stereo unspecified) — 1.9-fold higher, 390 nM
- Nc1nc(N)c2c(Oc3cccc4ccccc34)cccc2n1 — 5-fold higher, 1010 nM
- COc1ccc2c(CNCCCCCCNCc3c(OC)ccc4cc(OC)ccc34)c(OC)ccc2c1 — 2.8-fold higher, 560 nM
- CC(C)(c1ccccc1)c1ccc(O)c(CN2CCOCC2)c1 — 4.9-fold higher, 980 nM
- CC(C)N(Cc1ccc(-c2ccc(C(F)(F)F)cc2)cc1)C(=O)Cn1c(SCc2cccc(F)c2F)cc(=O)c2cc(CN3CCCCC3)ccc21 — 4.3-fold higher, 870 nM
- CCCNCc1ccc(-c2ccc(CN(CC3CCCO3)C(=O)COc3ccccc3Cl)cc2)nc1 (stereo unspecified) — 5.9-fold higher, 1180 nM
- Cc1cccc2[nH]c(-c3cccc(-c4ccc(NC(=O)NCc5ccccc5)cc4)c3)nc12 — within 1.5-fold, 230 nM
- O=C(Nc1cccc(CN2CCCN(Cc3ccc(O)cc3)CC2)c1)c1cc2ccccc2s1 — 1.8-fold higher, 360 nM
- COCCNCc1ccc(-c2ccc(CNC3CCN(Cc4ccccc4)CC3)cc2)cc1 — 3.4-fold higher, 670 nM
- COc1ccc(CC(C)NCC(O)c2cccc(Br)c2)cc1 (stereo unspecified) — 4.8-fold higher, 960 nM
- COc1cc2c(OC)cccc2cc1CNCCCCCCNCc1cc2cccc(OC)c2cc1OC — 4.1-fold higher, 820 nM
- Cc1c(Cn2ncc(N3CCC(N)CC3)c(Cl)c2=O)cccc1NC(=O)Nc1ccc(-c2ccccc2)cc1 — 3.5-fold higher, 700 nM
- NC1CCCN(Cc2cccc(-c3ccc(-c4nc5ccccc5[nH]4)s3)c2)C1 (stereo unspecified) — 2.9-fold higher, 580 nM
- CCOC(=O)c1ccc(NC(=O)N[C@@H](Cc2ccc(O)cc2)C(=O)NC2CCN(Cc3ccc4c(c3)OCO4)CC2)cc1 — 5.3-fold higher, 1060 nM
- Cc1c(F)cc(C(=O)NC2CC2)cc1-c1ccc2c(cnn2S(=O)(=O)c2cccs2)c1 — 4.3-fold higher, 860 nM
- CN(C)CCN1CCN(CCCN2c3ccccc3Sc3ccc(C(F)(F)F)cc32)CC1 — 3.8-fold higher, 760 nM
- COc1ccccc1C1CCN(C2CCC(NC(=O)/C=C/c3cc(C(F)(F)F)ccc3F)CC2)CC1 (stereo unspecified) — 4.3-fold higher, 870 nM
- COc1cc2cc(-c3nc4ccccc4[nH]3)c(N)nc2cc1OC — within 1.5-fold, 170 nM
- COc1ccc(CNCc2ccc(-c3ccc(-c4nc5c(C)cccc5[nH]4)cc3)cc2)cc1 — 1.7-fold higher, 340 nM
- CCN(CC)CCN1C(=O)C(O)(c2ccccc2Cl)c2c1cc(C(N)=O)cc2C(F)(F)F (stereo unspecified) — 3.5-fold higher, 700 nM
- COc1ccc(-c2cc(C(F)(F)F)n3ncc(C(=O)Nc4cc(C)ccc4O)c3n2)cc1OC — 1.5-fold lower, 130 nM
- CC(C)(CNC(=O)[C@H]1CCCCN1)c1nc(-c2ccc(Cl)c(O)c2)c(-c2ccncc2)[nH]1 — 3.6-fold higher, 730 nM
- O=C(Cc1cccc(Cl)c1)Nc1ccc(N2CCC(NCc3ccc4ncccc4c3)CC2)cc1 — 6.2-fold higher, 1230 nM
- COc1cc(NC(=O)N2CCc3cc(OC)c(OCCN4CCCCC4)cc32)cc(C(F)(F)F)c1 — 5.8-fold higher, 1150 nM
- NS(=O)(=O)c1ccccc1Nc1nc(Nc2ccc(N3CCOCC3)cc2)nc2c1CCC2 — 3.4-fold higher, 670 nM
- CC[C@H]1CN2CC[C@H]1C[C@H]2[C@H](O)c1cc(-c2ccccc2C(F)(F)F)nc2ccc(OC)cc12 — within 1.5-fold, 230 nM
- CCc1nc(N)nc(N)c1-c1ccc2c(c1)CCCC2 — the same, 200 nM
- COCCNCc1cccc(-c2ccccc2CN(C(=O)c2ccc3c(c2)OCO3)c2ccc(OC)cc2)c1 — 5.5-fold higher, 1110 nM
- COc1ccc(Cl)cc1N1CCN(CCCNC(=O)c2ccc(-c3nc4cc(Cl)c(C)cc4[nH]3)s2)CC1 — 3.9-fold higher, 780 nM
- COC(=O)C(Cc1ccccc1)C(CSCc1ccc(OC)cc1)C(=O)N[C@@H](C(=O)OC(C)(C)C)c1ccc(C(C)(C)C)cc1 (stereo partly specified) — 5.2-fold higher, 1030 nM
- COc1cccc(C(NC(=O)c2ccccc2)c2ccc3cccnc3c2O)c1 (stereo unspecified) — 5.4-fold higher, 1080 nM
- CCCCNC[C@@H](O)[C@H](Cc1ccccc1)NC(=O)c1cc(NCC)cc(N2CCCCS2(=O)=O)c1 — 2-fold higher, 400 nM
- CCCN(CCC)c1nn2c(=O)c(C(=O)N3CCN(Cc4ccccc4)CC3)cnc2s1 — 5-fold higher, 1000 nM
- O=C(Nc1cccc(OCCN2CCCC2)c1)Nc1ccc(Cl)c(Cl)c1 — 3.9-fold higher, 770 nM
- COc1ccc(NC(=O)[C@H](Cc2ccccc2)Nc2cc(C)nc(Nc3ccccc3)n2)cc1 — 5-fold higher, 1010 nM
- CCc1ccc2c(c1O)CCN(C)C2Cc1ccccc1Cl (stereo unspecified) — within 1.5-fold, 250 nM
- Cc1ccc(NC(=O)c2cn(-c3ccccc3)nc2-c2ccc(F)cc2)cc1[N+](=O)[O-] — 5-fold higher, 1000 nM
- COc1ccc2c(NN=C(C)c3ccccn3)cc(C)nc2c1 — 3.6-fold higher, 720 nM
- Cc1noc(C)c1-c1ccc2c(Nc3ccccc3C(C)(C)C)c(C(=O)NCc3ccc4c(c3)OCO4)cnc2c1 — 4.5-fold higher, 910 nM
- CC1(C)N=C(N)N=C(N)N1c1cc(Cl)c(Cl)cc1Cl — within 1.5-fold, 180 nM
- Cc1ccc(C2(C)CC(C)(C)N(C(=O)COc3ccc4ccccc4c3)c3ccccc32)cc1 (stereo unspecified) — 1.8-fold lower, 110 nM
- Cc1ccc(NC(=S)N2CCCN(CCCCCNC(=O)/C=C/c3ccc(Cl)c(Cl)c3)CC2)cc1Cl — 4.6-fold higher, 920 nM
- COc1cc2nc(C)nc(Nc3cccc(Br)c3)c2cc1OC — 1.8-fold higher, 360 nM
- OCCN1CCN(C(=S)NC2CCCCC2)CC1 — 5.5-fold higher, 1100 nM
- FC(F)(F)c1ccc(NC(=S)N2CCC(CN3CCC(c4c[nH]c5ccccc45)CC3)CC2)cc1 — 3.3-fold higher, 660 nM
- Cn1c2c(c3ccccc31)CN(CCC1(c3ccc(Cl)c(Cl)c3)CN(C(=O)c3ccccc3)CCO1)CC2 (stereo unspecified) — 1.6-fold higher, 310 nM
- C[C@@H]1CN(c2cnn(Cc3cccc(NC(=O)Nc4ccc(F)cc4[N+](=O)[O-])c3)c(=O)c2Cl)C[C@H](C)N1 — 4.3-fold higher, 870 nM
- O=[N+]([O-])c1cc2c(cc1C=NNc1nc(Nc3ccccc3)nc(Nc3ccccc3)n1)OCO2 — 4.3-fold higher, 870 nM
- CC1CN(S(=O)(=O)c2ccc(NC(=O)c3cc(-c4ccccc4O)n[nH]3)cc2)CC(C)O1 (stereo unspecified) — 4.2-fold higher, 830 nM
- COc1cc(NC(=O)/C=C/c2cccc3ccoc23)ccc1OCCN(C(C)C)C(C)C — 5.2-fold higher, 1040 nM
- Fc1cc(Cl)ccc1Nc1ccnc2cc(-c3ccc(CNCCN4CCOCC4)o3)ccc12 — within 1.5-fold, 280 nM
- C=CCn1c(SCC(=O)Nc2cc(Cl)ccc2Cl)nc2sc(C)cc2c1=O — 2.9-fold lower, 70 nM
- O=C(/C=C/c1ccc(Cl)c(Cl)c1)NCCCCCN1CCC(CCCNC(=O)Nc2ccc(C(F)(F)F)cc2)CC1 — 4.3-fold higher, 870 nM
- Cc1nc(-c2cccc3c(NC(=O)N4CCc5cc6nccc(N7CCN(C)CC7)c6cc54)cccc23)no1 — 3.8-fold higher, 760 nM
- COc1ccccc1NS(=O)(=O)c1cc(C(=O)Nc2ccc(N3CCOCC3)c(S(=O)(=O)Nc3ccccc3Cl)c2)ccc1Cl — 4.2-fold higher, 830 nM
- O=C(/C=C/c1ccc(Cl)c(Cl)c1)N1CC[C@H]2C[C@H](N3CCC(c4c[nH]c5ccccc45)CC3)CC[C@@H]2C1 — within 1.5-fold, 170 nM
- CC(C)CCNc1nc(NCCCc2ccccc2)c2cc(O)ccc2n1 — within 1.5-fold, 170 nM
- Cc1cccc2[nH]c(-c3cccc(-c4ccc(NC(=O)c5cnccc5C(F)(F)F)cc4)c3)nc12 — 3.5-fold higher, 700 nM
- CC1(C)C=C(c2ccncc2)c2cc(Cl)ccc2O1 — 2.1-fold higher, 430 nM
- O=C(Nc1cc(F)cc(-c2cccnc2)c1)c1ccc2c(=O)n(Cc3ccccc3)cnc2c1 — 6.7-fold higher, 1330 nM
- O=C(Nc1ccc(Cl)c(Cl)c1)N[C@H]1CCN(CCCCCNC(=O)[C@@H]2C[C@H]2c2ccc(Cl)c(Cl)c2)C1 — 5.2-fold higher, 1030 nM
- CCCCC1(NC(=O)[C@@H](Nc2ccc(C#N)c3ccccc23)C2CCCCC2)CCCCC1 — 5.6-fold higher, 1120 nM
- N#Cc1ccc(C(=O)Nc2cccc(-c3ccc(CN4CCCC4)cc3)c2)cc1 — 3.6-fold higher, 720 nM
- Cc1cc(N2CCN(C)CC2)nc2ccc(NC(=O)c3cccc(N(C)C)c3)cc12 — 4.8-fold higher, 950 nM
- COc1ccccc1/C=C/C(=O)N(C)C1CCN(CCCCCNC(=O)/C=C/c2ccc(Cl)c(Cl)c2)CC1 — 2.2-fold higher, 440 nM
- O=C(O)C1Cc2c([nH]c3ccccc23)C(c2ccc(Cl)cc2Cl)N1 (stereo unspecified) — 4.8-fold higher, 950 nM
- O=C(O)c1ccc2c(c1)N(C(=O)CNCc1ccc(F)cc1)CC(=O)N2CCCc1ccccc1 — 4.6-fold higher, 920 nM
- O[C@H](c1cc(C(F)(F)F)nc2c(C(F)(F)F)cccc12)[C@@H]1CCCCN1 — 2.9-fold lower, 70 nM
- COc1cc2ncnc(Nc3ccc(OCc4ccccc4)c(I)c3)c2cc1OC — 3.5-fold higher, 710 nM
- COc1ccc2c(c1)CC(NCc1ccc(-c3ccc4nc[nH]c4c3)cc1)C2 (stereo unspecified) — 4.4-fold higher, 880 nM

For `O=C(Nc1ccccc1OC(F)(F)F)NC1CCC(CN2CCC(c3c[nH]c4ccccc34)CC2)CC1` (stereo unspecified), the IC50 was 370 nM and 800 nM.
